Results: patent US6992215B2, “Thiol-based NAALADase inhibitors” (Guildford Pharmaceuticals Inc., priority 2001, dated 2006)

Legend:
cortical cell cultures = assay: In Vitro Assay on Ischemia (glutamate toxicity after potassium cyanide / 2-deoxyglucose insult); assay type: cell-based; conditions: concentration required to cause a 50% reduction in glutamate toxicity following an ischemic insult
Protocol: To examine the in vitro effect of the inventive compounds on ischemia, cortical cell cultures were treated with various compounds of this invention during an ischemic insult utilizing potassium cyanide and 2-deoxyglucose, and for one hour thereafter. For a description of the experimental method used, see Vornov et al., J. Neurochem., Vol. 65, No. 4, pp. […] (1995).

[1] = system: chronic constrictive injury-induced rats; assay: Neuropathic pain in CCI model (sciatic nerve ligation, thermal hyperalgesia); assay type: in vivo; conditions: 10, 1 or 0.1 mg/kg for 15 days after sciatic nerve ligation, FIGS. 13-15
Protocol: Sciatic nerve ligation, consisting of 4 ligatures tied loosely around the sciatic nerve at 1 mm intervals proximal to the nerve trifurcation, was performed on rats. […] The rats were habituated to a Hargreaves apparatus. An infrared heat source was directed onto the dorsal surface of each rat's hindpaws and the time taken for the rat to withdraw its paws was noted. The difference in scores between the latency of the response for the paw on the operated side versus the paw on the unoperated control side was determined.
The rats were treated with either Compound 49 (10, 1 or 0.1 mg/kg) or a vehicle for 15 days after sciatic nerve ligation. Thermal pain responses were measured at days 0, 1, 5, 8, 11 and 15. The differences in scores for the rats treated with a vehicle and the rats treated with Compound 49 are graphically presented in FIGS. 13-15.
The rats were treated with either Compound 5 (50, 30, 10, 3, 1 or 0.3 mg/kg) or a vehicle for 12 (or 15) days after sciatic nerve ligation. Thermal pain responses were measured at days 0, 1, 5, 8 and 12 (and 15). The differences in scores for the rats treated with a vehicle and the rats treated with Compound 5 are graphically presented in FIGS. 17-22.
The rats received either Compound C (50 mg/kg i.p. daily) or a vehicle starting 10 days post surgery. […] Normal (unoperated) rats had approximately equal latencies for both paws. This effect was significant starting at 11 days of drug treatment and persisted through to the end of the study (for 21 days of daily dosing).

Row | SMILES | EC50 (cortical cell cultures) [nM] | difference in scores between the operated and unoperated paws [1]
1 | O=C(O)c1cc(CC(CCCS)C(=O)O)cc(-c2ccccc2)c1 (stereo not drawn) [Compound 55, 5-(2-carboxy-5-mercaptopentyl)-[1,1′-biphenyl]-3-carboxylic acid] | 1 | 
2 | O=C(O)c1ccccc1CC(CCCS)C(=O)O (stereo not drawn) [Compound 38, 2-carboxy-alpha-(3-mercaptopropyl)-benzenepropanoic acid] | 762 | 
3 | O=C(O)c1cc(Br)cc(CC(CCCS)C(=O)O)c1 (stereo not drawn) [Compound 45, 3-bromo-5-carboxy-alpha-(3-mercaptopropyl)-benzenepropanoic acid] | 2 | 
4 | NC(=O)c1ccccc1CC(CCCS)C(=O)O (stereo not drawn) [Compound 13, 2-(aminocarbonyl)-alpha-(3-mercaptopropyl)-benzenepropanoic acid] | 10000 | 
5 | O=C(O)c1ccc(Cl)c(OC(CCCS)C(=O)O)c1 (stereo not drawn) [Compound 33, 3-(1-carboxy-4-mercaptobutoxy)-4-chloro-benzoic acid] | 110 | 
6 | O=C(O)c1c(F)c(F)c(CC(CCCS)C(=O)O)c(F)c1F (stereo not drawn) [Compound 39, 4-carboxy-2,3,5,6-tetrafluoro-alpha-(3-mercaptopropyl)-benzenepropanoic acid] | 290 | 
7 | O=C(O)C(CCCS)Cc1ccccc1Cl (stereo not drawn) [Compound 43, 2-chloro-alpha-(3-mercaptopropyl)-benzenepropanoic acid] | 452 | 
8 | O=C(O)Cc1ccc(OC(CCCS)C(=O)O)cc1 (stereo not drawn) [Compound 21, 4-(1-carboxy-4-mercaptobutoxy)-benzeneacetic acid] | 11.6 | 
9 | O=C(O)Cc1cccc(OC(CCCS)C(=O)O)c1 (stereo not drawn) [Compound 20, 3-(1-carboxy-4-mercaptobutoxy)-benzeneacetic acid] | 39.3 | 
10 | O=C(O)c1cc(CC(CCCS)C(=O)O)ccc1-c1ccccc1 (stereo not drawn) [Compound 58, 4-(2-carboxy-5-mercaptopentyl)-[1,1′-biphenyl]-2-carboxylic acid] | 16 | 
11 | O=C(O)c1ccc([N+](=O)[O-])c(CC(CCCS)C(=O)O)c1 (stereo not drawn) [Compound 50, 5-carboxy-alpha-(3-mercaptopropyl)-2-nitro-benzenepropanoic acid] | 26 | 
12 | N#Cc1ccccc1-c1ccc(CC(CCCS)C(=O)O)cc1 (stereo not drawn) [Compound 12, 4-(2-cyanophenyl)-alpha-(3-mercaptopropyl)-benzenepropanoic acid] | 188 | 
13 | O=C(O)c1cc(CC(CCCS)C(=O)O)ccc1Cl (stereo not drawn) [Compound 32, 3-carboxy-4-chloro-alpha-(3-mercaptopropyl)-benzenepropanoic acid] | 7 | 
14 | COc1ccc(C(=O)O)cc1OC(CCCS)C(=O)O (stereo not drawn) [Compound 27, 3-(1-carboxy-4-mercaptobutoxy)-4-methoxy-benzoic acid] | 155 | 
15 | O=C(O)c1ccc(OC(CCCS)C(=O)O)cc1 (stereo not drawn) [Compound 30, 4-(1-carboxy-4-mercaptobutoxy)-benzoic acid] | 399 | 
16 | O=C(O)c1cccc(OC(CCCS)C(=O)O)c1 (stereo not drawn) [Compound 14, 3-(1-carboxy-4-mercaptobutoxy)-benzoic acid] | 16 | 
17 | CC(=O)c1cccc(OC(CCCS)C(=O)O)c1 (stereo not drawn) [Compound 23, 2-(3-acetylphenoxy)-5-mercapto-pentanoic acid] | 21 | 
18 | O=C(O)c1ccc(Cl)c(CC(CCCS)C(=O)O)c1 (stereo not drawn) [Compound 10, 5-carboxy-2-chloro-alpha-(3-mercaptopropyl)-benzenepropanoic acid] | 7.7 | 
19 | O=C(O)c1ccc(F)c(CC(CCCS)C(=O)O)c1 (stereo not drawn) [Compound 35, 5-carboxy-2-fluoro-alpha-(3-mercaptopropyl)-benzenepropanoic acid] | 23 | 
20 | O=C(O)Cc1ccc(CC(CCCS)C(=O)O)cc1 (stereo not drawn) [Compound 28, 4-(carboxymethyl)-alpha-(3-mercaptopropyl)-benzenepropanoic acid] | 48 | 

Row | SMILES | EC50 (cortical cell cultures) [nM] | difference in scores between the operated and unoperated paws [1]
21 | CC(C)(C)c1cc(CC(CCCS)C(=O)O)cc(C(=O)O)c1 (stereo not drawn) [Compound 49, 3-carboxy-5-(1,1-dimethylethyl)-alpha-(3-mercaptopropyl)-benzenepropanoic acid] |  | normalized the difference in scores
22 | O=C(O)C(CCCS)Sc1ccccc1 (stereo not drawn) [Compound 40, 5-mercapto-2-(phenylthio)-pentanoic acid] | 452 | 
23 | O=C(O)C(CCCS)Oc1ccccc1 (stereo not drawn) [Compound 15, 5-mercapto-2-phenoxy-pentanoic acid] | 1000 | 
24 | O=C(O)c1ccc(CC(CCCS)C(=O)O)cc1Br (stereo not drawn) [Compound 47, 3-bromo-4-carboxy-alpha-(3-mercaptopropyl)-benzenepropanoic acid] | 119 | 
25 | O=C(O)c1ccc(CC(CCCS)C(=O)O)cc1 (stereo not drawn) [Compound 6, 4-carboxy-alpha-(3-mercaptopropyl)-benzenepropanoic acid] | 17.8 | 
26 | O=C(O)c1cc(CC(CCCS)C(=O)O)cc([N+](=O)[O-])c1 (stereo not drawn) [Compound 48, 3-carboxy-alpha-(3-mercaptopropyl)-5-nitro-benzenepropanoic acid] | 2.4 | 
27 | O=C(O)c1cccc(CC(CCCS)C(=O)O)c1-c1ccccc1 (stereo not drawn) [Compound 57, 6-(2-carboxy-5-mercaptopentyl)-[1,1′-biphenyl]-2-carboxylic acid] | 21 | 
28 | O=C(O)c1ccc(F)c(OC(CCCS)C(=O)O)c1 (stereo not drawn) [Compound 34, 3-(1-carboxy-4-mercaptobutoxy)-4-fluoro-benzoic acid] | 346 | 
29 | O=C(O)c1ccc(CC(CCCS)C(=O)O)c2ccccc12 (stereo not drawn) [Compound 37, 4-carboxy-alpha-(3-mercaptopropyl)-1-naphthalenepropanoic acid] | 215 | 
30 | O=C(O)c1ccc(-c2ccccc2)c(CC(CCCS)C(=O)O)c1 (stereo not drawn) [Compound 56] | 11 | 
31 | COc1ccc(C(=O)O)cc1CC(CCCS)C(=O)O (stereo not drawn) [Compound 36, 5-carboxy-alpha-(3-mercaptopropyl)-2-methoxy-benzenepropanoic acid] | 74.9 | 
32 | O=C(O)CNC(=O)c1cccc(CC(CCCS)C(=O)O)c1 (stereo not drawn) [Compound 46, 3-[[(carboxymethyl)amino]carbonyl]-alpha-(3-mercaptopropyl)-benzenepropanoic acid] | 544 | 
33 | COc1cc(OC)cc(OC(CCCS)C(=O)O)c1 (stereo not drawn) [Compound 16, 2-(3,5-dimethoxyphenoxy)-5-mercapto-pentanoic acid] | 267 | 
34 | CC(=O)Nc1ccc(CC(CCCS)C(=O)O)cc1 (stereo not drawn) [Compound 26, 4-(acetylamino)-alpha-(3-mercaptopropyl)-benzenepropanoic acid] | 1800 | 
35 | O=C(O)c1cccc(CC(CCCS)C(=O)O)c1Cl (stereo not drawn) [Compound 31, 3-carboxy-2-chloro-alpha-(3-mercaptopropyl)-benzenepropanoic acid] | 31 | 
36 | O=C(O)c1cc(CC(CCCS)C(=O)O)cc(C(=O)O)c1 (stereo not drawn) [Compound 9, 5-(2-carboxy-5-mercaptopentyl)-1,3-benzenedicarboxylic acid] | 104 | 
37 | O=C(O)c1cc(CC(CCCS)C(=O)O)ccc1F (stereo not drawn) [Compound 11, 3-carboxy-4-fluoro-alpha-(3-mercaptopropyl)-benzenepropanoic acid] | 15.4 | 
38 | CS(=O)(=O)c1ccc(CC(CCCS)C(=O)O)cc1 (stereo not drawn) [Compound 7, alpha-(3-mercaptopropyl)-4-(methylsulfonyl)-benzenepropanoic acid] | 1060 | 
39 | N#Cc1ccccc1CC(CCCS)C(=O)O (stereo not drawn) [Compound 8, 2-cyano-alpha-(3-mercaptopropyl)-benzenepropanoic acid] | 133 | 
